In this assay the test system is A375 melanoma xenografts. Kind of assay: tumor growth of subcutaneously growing A375 melanoma xenografts. The note with it: i.v.; doxorubicin 2×8 mg/kg on days 8 and 15; FIG. 5. It is filed as in vivo, nacked mice. As to the method:
Animals: nacked mice; stock solution of doxorubicin (2 mg/ml); stock solution of 1:6 mg/ml in 10 mM sodium phosphate, 5% D-glucose (pH 6.4), control (buffer): glucose phosphate buffer (10 mM sodium phosphate, 5% D-glucose—pH 6.4) on days 8 and 15.

On to `COc1cccc2c1C(=O)c1c(O)c3c(c(O)c1C2=O)C[C@@](O)(C(=O)CO)C[C@@H]3O[C@H]1C[C@H](N)[C@H](O)[C@H](C)O1` [Doxorubicin, doxorubicin], for which the “relative tumor volume compared to treatment with the derivative according to the invention” value is on record as “approximately three times larger tumor volume”.

The record behind these values is patent publication US7803903B2, “Protein-binding doxorubicin peptide derivatives” (priority 2003, dated 2010).
